In patent US4676822A, “Fluid fertilizers containing thiophosphoryl triamide” (Tennessee Valley Authority, priority 1986, dated 1987):
“And” between values parts separate entries of the source, which are not always exact repeats. Equal values may be shown once.

What was measured:
urease [1] = settings: prior art; cited from earlier work
[2] = Stability of TPTA in UAN (31-0-0) at 25° C. (HPLC); format: physicochemical; settings: for % original TPTA remaining: UAN (31-0-0)
Protocol: A sample containing 1 weight percent TPTA was prepared by dissolving 1 g of TPTA in 99 g of 31-0-0 having the composition given in Table I, supra, and an initial pH of 8.1. The sample was maintained at room temperature (25° C.) and analyzed periodically for TPTA by HPLC. The results of the kinetic study are given in Table V infra and as noted supra plotted in FIG. 4 along with the first-order rate equation (solid line in FIG. 4) which was determined by linear regression.

[3] = 25° C., water partial pressure 12.73 mm of Hg; cited from earlier work
[4] = Stability of TPTA in 40 wt % urea solution (HPLC); format: physicochemical; settings: 25° C.; for % original TPTA remaining: 40 wt % urea solution
Protocol: A 40 weight percent urea solution (initial pH=8.5) was prepared by dissolving 80 g of urea in 120 g of water. A sample containing 1 weight percent TPTA was prepared by dissolving 1 g of TPTA in 99 g of the 40 weight percent urea solution. The sample was maintained at room temperature (25° C.) and analyzed periodically for TPTA by HPLC. The results of this kinetic study are given in Table IV infra and as noted supra plotted in FIG. 3 along with the first-order rate equation (solid line FIG. 3) which was determined by linear regression.

[5] = compared with PPDA; cited from earlier work
[6] = Stability of TPTA in UAN (36-0-0) at 25° C. (HPLC); format: physicochemical; settings: for % original TPTA remaining: UAN (36-0-0)
Protocol: A sample containing 1 weight percent TPTA was prepared by dissolving 1 g of TPTA in 99 g of 36-0-0 having the composition given in Table I, supra, and an initial pH of 7.4. The sample was maintained at room temperature (25° C.) and analyzed periodically for TPTA by HPLC.
The results of this kinetic study are given in Table V supra, and as noted supra, plotted in FIG. 4 along with the first-order rate equation (solid line in FIG. 4) which was determined by linear regression.

urease [7] = experiment: Urease inhibition tests with TPTA and PPDA in fluid fertilizers, banded soil system (urease-active Hastings silt loam); format: biochemical; settings: for average % urea unhydrolyzed, 3 days / % urea unhydrolyzed, 3 days: 3 days incubation at 25° C.; for average % urea unhydrolyzed, 3 days / average % urea unhydrolyzed, 6 days: average of A and B samples; for % urea unhydrolyzed, 3 days / % urea unhydrolyzed, 6 days: single sample; for average % urea unhydrolyzed, 6 days / % urea unhydrolyzed, 6 days: 6 days incubation at 25° C.
Protocol: Samples of UAN (31-0-0), 1 g, and (36-0-0), 0.66 g containing approximately 0.38 g urea and 0.041 g of TPTA were prepared by dissolving solid TPTA in 31-0-0 and 36-0-0 of the compositions shown in Table I, supra. Identical samples containing PPDA and without either inhibitor were prepared to serve as references for purposes of data comparison.
Urease-active soil (Hastings silt loam) was moistened to a moisture content of 20 percent and preincubated at room temperature for two days. Plexiglass containers (6×6×6 cm) were one-half filled with soil and packed to a bulk density of 1.0 g/cm^3. The 31-0-0 and 36-0-0 samples containing TPTA and PPDA as well as samples containing no inhibitor were distributed evenly in a narrow band 6 cm along the soil surface. The containers were filled with soil and again packed to a bulk density of 1.0 g/cm^3. The containers were incubated at 25° C. for the desired reaction period. After incubation the soil from each container was thoroughly mixed, and a 10-g sample was extracted with 100 mL of 2M KCl containing 5 ppm phenylmercuric acetate to prevent urea hydrolysis during handling [L. A. Douglass and J. M. Bremner, Soil Sci. Soc. Am. Proc. 34, 859-862 (1970)]. The urea in the extracts was determined colorimetrically as a measure of unhydrolyzed urea. The results of three-day and six-day incubation tests are illustrated in Table II infra; and as noted supra, plotted in FIG. 1.

NP(N)(N)=S [TPTA, thiophosphoryl triamide]
urease inhibition (in words) (urease [1]): comparable and in some cases more effective than PPDA | reaction half-life in the 31-0-0 solution ([2]; 1 wt % TPTA, initial pH 8.1, first-order): 93 days | % original TPTA remaining ([2]; time 0.00 days): 100.00% | % original TPTA remaining ([2]; time 1.22 days): 100.00% | % original TPTA remaining ([2]; time 5.22 days): 97.60% | % original TPTA remaining ([2]; time 7.13 days): 100.00% | % original TPTA remaining ([2]; time 9.09 days): 99.55% | % original TPTA remaining ([2]; time 12.07 days): 101.78% | % original TPTA remaining ([2]; time 14.22 days): 100.47% | % original TPTA remaining ([2]; time 16.01 days, 23054.4 min): 95.59% and 95.43% | % original TPTA remaining ([2]; time 20.05 days): 89.05% | % original TPTA remaining ([2]; time 26.05 days): 95.55% | % original TPTA remaining ([2]; time 40.17 days): 79.49% | % original TPTA remaining ([2]; time 47.14 days): 79.62% | % original TPTA remaining ([2]; time 61.08 days): 74.35% | % original TPTA remaining ([2]; time 64.99 days): 63.03% | % original TPTA remaining ([2]; time 71.70 days): 68.55% | % original TPTA remaining ([2]; time 82.71 days, 119102 min): 43.85% | % original TPTA remaining ([2]; time 90.71 days, 130622 min): 52.17% | % original TPTA remaining ([2]; time 96.75 days): 51.55% | % original TPTA remaining ([2]; time 103.71 days): 52.04% | % original TPTA remaining ([2]; time 111.71 days): 47.46% | reaction half-life in solid mixtures with urea [3]: 1.6 days | reaction half-life in 40 weight percent urea solution ([4]; 1 wt % TPTA, initial pH 8.5, first-order): 168 days | % original TPTA remaining ([4]; time 0.00 days): 100.00% | % original TPTA remaining ([4]; time 9.04 days): 94.96% | % original TPTA remaining ([4]; time 9.25 days): 94.83% | % original TPTA remaining ([4]; time 10.21 days): 93.97% | % original TPTA remaining ([4]; time 13.05 days): 94.25% | % original TPTA remaining ([4]; time 14.99 days): 89.47% | % original TPTA remaining ([4]; time 17.22 days): 88.78% | % original TPTA remaining ([4]; time 20.27 days): 91.44% | % original TPTA remaining ([4]; time 22.12 days): 87.44% | % original TPTA remaining ([4]; time 24.07 days): 88.80% | % original TPTA remaining ([4]; time 29.19 days): 87.81% | % original TPTA remaining ([4]; time 31.23 days): 87.90% | % original TPTA remaining ([4]; time 34.23 days): 88.52% | % original TPTA remaining ([4]; time 36.03 days): 86.26% | % original TPTA remaining ([4]; time 38.19 days): 91.36% | % original TPTA remaining ([4]; time 41.19 days): 88.11% | % original TPTA remaining ([4]; time 43.10 days): 78.25% | % original TPTA remaining ([4]; time 45.07 days): 79.73% | % original TPTA remaining ([4]; time 48.04 days): 76.59% | % original TPTA remaining ([4]; time 50.20 days): 78.68% | % original TPTA remaining ([4]; time 52.00 days, 74880 min): 76.66% and 76.56% | % original TPTA remaining ([4]; time 56.04 days): 76.52% | % original TPTA remaining ([4]; time 62.02 days): 76.02% | % original TPTA remaining ([4]; time 76.14 days, 109642 min): 76.78% | % original TPTA remaining ([4]; time 83.11 days, 119678 min): 70.05% | % original TPTA remaining ([4]; time 97.06 days, 139766 min): 65.19% | stability in urea melt [5]: substantially more stable in urea melt than PPDA | reaction half-life in the 36-0-0 solution ([6]; 1 wt % TPTA, initial pH 7.4, first-order): 43 days | % original TPTA remaining ([6]; time 0.00 days): 100.00% | % original TPTA remaining ([6]; time 1.22 days): 100.00% | % original TPTA remaining ([6]; time 5.22 days): 93.60% | % original TPTA remaining ([6]; time 7.13 days): 97.15% | % original TPTA remaining ([6]; time 9.09 days): 81.12% | % original TPTA remaining ([6]; time 12.07 days): 82.21% | % original TPTA remaining ([6]; time 14.22 days): 84.30% | % original TPTA remaining ([6]; time 16.01 days, 23054.4 min): 79.90% and 73.86% | % original TPTA remaining ([6]; time 20.05 days): 70.87% | % original TPTA remaining ([6]; time 26.05 days): 72.43% | % original TPTA remaining ([6]; time 40.17 days): 43.14% | % original TPTA remaining ([6]; time 47.14 days): 42.94% | % original TPTA remaining ([6]; time 61.08 days): 32.25% | % original TPTA remaining ([6]; time 64.99 days): 41.41% | % original TPTA remaining ([6]; time 71.70 days): 31.14% | % original TPTA remaining ([6]; time 82.71 days, 119102 min): 29.60% | % original TPTA remaining ([6]; time 90.71 days, 130622 min): 20.67% | % original TPTA remaining ([6]; time 96.75 days): 25.07% | % original TPTA remaining ([6]; time 103.71 days): 21.73% | % original TPTA remaining ([6]; time 111.71 days): 13.09% | average % urea unhydrolyzed, 3 days (urease [7]; UAN (31-0-0)): 97.90% | % urea unhydrolyzed, 3 days (urease [7]; UAN (31-0-0)): 101.90% and 93.89% | average % urea unhydrolyzed, 6 days (urease [7]; UAN (31-0-0)): 48.48% | % urea unhydrolyzed, 6 days (urease [7]; UAN (31-0-0)): 47.75% and 49.21% | average % urea unhydrolyzed, 3 days (urease [7]; UAN (36-0-0)): 88% and 87.63% | % urea unhydrolyzed, 3 days (urease [7]; UAN (36-0-0)): 91.03% and 84.24% | average % urea unhydrolyzed, 6 days (urease [7]; UAN (36-0-0)): 47.82% and 48% | % urea unhydrolyzed, 6 days (urease [7]; UAN (36-0-0)): 44.37% and 51.28% | amount of unhydrolyzed urea in the soil relative to PPDA treatment (urease [7]; after six days): approximately four times that of the PPDA treatment
